The supplement of paper PMC5908809

Legend:
[1] = system: normal NK cells expanded with K562-aAPC; assay: percent inhibition of viability; higher = more inhibition; conditions: 72 h, IL-2 2.5 ng/mL
Protocol: (§1)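 Drug sensitivity and resistance testing on K562-aAPC-expanded normal NK cells: 5 concentrations (10-fold steps over a 10,000-fold range), 72 h at 37 °C, viability by CellTiter-Glo normalised to DMSO and benzethonium chloride controls; DSS from the fitted curve.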

[2] = system: DERL-7 (IL-2 2.5 ng/mL); assay: as above; conditions: 72 h
[3] = system: IMC-1 (IL-2 20 ng/mL); assay: as above; conditions: 72 h
[4] = system: KAI3 (IL-2 2.5 ng/mL); assay: as above; conditions: 72 h
[5] = system: KHYG-1 (IL-2 2.5 ng/mL); assay: as above; conditions: 72 h
[6] = system: NK-92 (IL-2 2.5 ng/mL); assay: as above; conditions: 72 h
[7] = system: NK-YS (IL-2 2.5 ng/mL); assay: as above; conditions: 72 h
[8] = system: NKL (IL-2 2.5 ng/mL); assay: as above; conditions: 72 h
[9] = system: SNK-6 (IL-2 2.5 ng/mL); assay: as above; conditions: 72 h
[10] = system: YT (IL-2 2.5 ng/mL); assay: as above; conditions: 72 h
[11] = system: normal primary NK cells, pool 1 (3 donors) (IL-2 2.5 ng/mL); assay: as above; conditions: 72 h
[12] = system: normal primary NK cells, pool 1 (3 donors), resting (IL-2 0 ng/mL); assay: as above; conditions: 72 h
[13] = system: normal primary NK cells, pool 2 (3 donors) (IL-2 2.5 ng/mL); assay: as above; conditions: 72 h
[14] = system: normal primary NK cells, pool 3 (3 donors) (IL-2 2.5 ng/mL); assay: as above; conditions: 72 h
[15] = system: normal NK cells expanded with K562-aAPC; assay: drug sensitivity score (DSS) (DSS units); higher = more sensitive; extreme values may be limits of the assay; conditions: 72 h; IL-2 2.5 ng/mL
Protocol: as §1

[16] = system: DERL-7 (IL-2 2.5 ng/mL); assay: as above; conditions: 72 h
[17] = system: IMC-1 (IL-2 20 ng/mL); assay: as above; conditions: 72 h
[18] = system: KAI3 (IL-2 2.5 ng/mL); assay: as above; conditions: 72 h
[19] = system: KHYG-1 (IL-2 2.5 ng/mL); assay: as above; conditions: 72 h
[20] = system: NK-92 (IL-2 2.5 ng/mL); assay: as above; conditions: 72 h
[21] = system: NK-YS (IL-2 2.5 ng/mL); assay: as above; conditions: 72 h
[22] = system: NKL (IL-2 2.5 ng/mL); assay: as above; conditions: 72 h
[23] = system: SNK-6 (IL-2 2.5 ng/mL); assay: as above; conditions: 72 h
[24] = system: YT (IL-2 2.5 ng/mL); assay: as above; conditions: 72 h
[25] = system: normal primary NK cells, pool 1 (3 donors) (IL-2 2.5 ng/mL); assay: as above; conditions: 72 h
[26] = system: normal primary NK cells, pool 1 (3 donors), resting (IL-2 0 ng/mL); assay: as above; conditions: 72 h
[27] = system: normal primary NK cells, pool 2 (3 donors) (IL-2 2.5 ng/mL); assay: as above; conditions: 72 h
[28] = system: normal primary NK cells, pool 3 (3 donors) (IL-2 2.5 ng/mL); assay: as above; conditions: 72 h

Oc1ncnc2[nH]ncc12 [Allopurinol] (max concentration tested 10000 nM)
percent inhibition of viability [%]
Conditions	1 nM	10 nM	100 nM	1000 nM	10000 nM
[1]	-3.35	-7.15	-3.73	3.65	10.3
[2]	2.01	4.75	3.34	1.14	-11.8
[3]	0.44	0.22	0.39	1.15	17.8
[4]	17.2	10.9	9.45	11.5	25.8
[5]	-9.33	-11.3	-5.44	-3.66	4.19
[6]	6.41	11.2	3.55	20.5	30.9
[7]	2.79	-1.6	-0.2	4.55	19.6
[8]	1.32	3.75	2.9	25.9	26
[9]	11.9	-22.5	-2.24	-13.2	5.06
[10]	-7.85	-8.54	-5.69	-2.75	18
[11]	-1.72	15.7	6.17	6.91	4.11
[12]	22.9	25.1	18.7	23.7	20.5
[13]	4.21	8.86	8.54	1.11	5.24
[14]	-2.7	8.19	6.53	0	8.15

Conditions	drug sensitivity score
[15]	0.01
[16]	0
[17]	0.55
[18]	0
[19]	0
[20]	3.57
[21]	1.14
[22]	4.59
[23]	0
[24]	0.33
[25]	0
[26]	0
[27]	0
[28]	0

Cc1nc(NC(=O)N2CCC[C@H]2C(N)=O)sc1-c1ccnc(C(C)(C)C(F)(F)F)c1 [Alpelisib] (max concentration tested 2500 nM)
percent inhibition of viability [%]
Conditions	0.25 nM	2.5 nM	25 nM	250 nM	2500 nM
[1]	0.72	1.85	-0.5	3.19	30.6
[2]	-4.58	-9.56	-0.97	-2.79	25.6
[3]	3.85	3.43	5.77	4.62	5.3
[4]	6.58	6.32	4.01	8.23	30.4
[5]	-0.82	0.62	4.26	2.48	8.78
[6]	-1.19	0.59	11.2	7.16	16.2
[7]	-0.06	-1.74	4.37	2.5	12.7
[8]	-4.18	0.03	10.1	5.23	12.8
[9]	-6.11	8.58	10.5	15.4	29
[10]	-0.82	0.14	1.96	2.35	13
[11]	-6.99	-1.42	-4.27	3.43	6.48
[12]	-10.5	5.01	-8.93	6.1	10.3
[13]	-4.3	-1.23	0.06	3.89	11.4
[14]	-7.64	-5.69	-6.05	0.32	2.93

Conditions	drug sensitivity score
[15]	1.85
[16]	0.82
[17]	0
[18]	2.35
[19]	0
[20]	0.74
[21]	0.18
[22]	0.2
[23]	3.22
[24]	0.26
[25]	0
[26]	0.03
[27]	0.14
[28]	0

O=C1CN2Cc3c(ccc(Cl)c3Cl)N=C2N1 [Anagrelide] (max concentration tested 10000 nM)
percent inhibition of viability [%]
Conditions	1 nM	10 nM	100 nM	1000 nM	10000 nM
[1]	-10.7	-8.47	-7.13	1.09	4.94
[2]	0.58	-15.8	5.22	-2.15	-3.54
[3]	-2	-2.1	0.73	-7.98	0.69
[4]	-3.01	-16.8	2.67	7.81	26.7
[5]	-5.21	-5.67	-5.27	2.55	2.12
[6]	-16.3	-4.98	5.49	11	18.2
[7]	-1.23	-6.42	0.98	-1.47	9.94
[8]	-8	-3.63	5.32	5.47	9.73
[9]	-14.4	-27.6	-25	10.6	16.6
[10]	-4.72	-11.3	-2.78	-6.4	13
[11]	-7.17	12.1	9.62	3.68	6.66
[12]	-14.4	8.37	10.8	4.74	9.32
[13]	-5.09	5.68	10.3	2.48	5.2
[14]	-7.45	-4.06	-2.15	-4.72	-5.66

Conditions	drug sensitivity score
[15]	0
[16]	0
[17]	0
[18]	2.01
[19]	0
[20]	1.23
[21]	0
[22]	0
[23]	1.18
[24]	0.03
[25]	0
[26]	0.58
[27]	0
[28]	0

Nc1ncn([C@@H]2O[C@H](CO)[C@@H](O)[C@H]2O)c(=O)n1 [Azacitidine] (max concentration tested 10000 nM)
percent inhibition of viability [%]
Conditions	1 nM	10 nM	100 nM	1000 nM	10000 nM
[1]	-4.42	-10.9	-6.84	4.72	60.3
[2]	2.03	3.15	2.51	24.5	85.6
[3]	-6.44	-3.39	2.53	-7.92	82.7
[4]	-2.09	-1.87	2.62	26.2	60.5
[5]	-4.59	-3.23	2.46	23.2	89.6
[6]	-4.17	-12.4	-0.66	23.1	83.7
[7]	-2.67	-1.33	3.5	15.9	67.6
[8]	-16.7	-17.1	-14.1	-11.2	65.5
[9]	-3.1	1	15.7	47.1	67.8
[10]	-1.86	-3.15	-1.98	-0.51	28
[11]	-2.2	-10.3	1.35	9.04	30.6
[12]	-3.24	-12.3	5.31	4.81	27.4
[13]	-6.68	-8.85	-5.14	-3.32	29.2
[14]	-6.45	-3.68	-2.24	-3.82	25.5

Conditions	drug sensitivity score
[15]	4
[16]	8.4
[17]	4.03
[18]	6.42
[19]	8.51
[20]	8.11
[21]	6.22
[22]	2.92
[23]	10.7
[24]	1.12
[25]	2.65
[26]	1.88
[27]	1.04
[28]	0.77

CC[C@@H]1C(=O)N(C)c2cnc(Nc3ccc(C(=O)NC4CCN(C)CC4)cc3OC)nc2N1C1CCCC1 [BI 2536] (max concentration tested 1000 nM)
percent inhibition of viability [%]
Conditions	0.1 nM	1 nM	10 nM	100 nM	1000 nM
[1]	1.03	0.31	20.1	60.1	67.4
[2]	-1.78	1.66	56.8	99.1	96.4
[3]	-3.03	-6.74	26.6	96.7	95.2
[4]	-2.84	1.84	32	55.7	52.9
[5]	-0.33	-0.33	11.5	101	102
[6]	-10.3	-5.85	41.7	99.6	91.2
[7]	1.37	3.08	22.7	66.2	58.4
[8]	-16.1	-17.7	34.5	66.8	64.5
[9]	3.37	2.93	50.7	61.7	48.1
[10]	-0.96	-1.95	5.23	77.8	74.1
[11]	-8.51	7.02	-5.03	-6.42	36.1
[12]	4.96	13.2	-4.79	-10.2	31.4
[13]	-11.8	-7.85	-1.58	7	58.2
[14]	-15.6	-13.3	-7.87	-2.57	41.2

Conditions	drug sensitivity score
[15]	13.5
[16]	24.6
[17]	21.4
[18]	14.1
[19]	19.9
[20]	23.4
[21]	15.2
[22]	16.6
[23]	17.8
[24]	15
[25]	1.36
[26]	0.98
[27]	4.32
[28]	1.86
